Where a SMILES comes first, the peptide text is derived from it. [ ]: non-standard residue; d: D form.
Columns and labels:
[1] = tested on: JPAB01: ompA-deficient ATCC 17978 strain; test: Bacterial cytotoxicity on A549 cells, MTT assay; assay type: cell-based, A. baumannii; settings: JPAB01, 0.5 mg/mL, 48 h
Description: Bacterial cytotoxicity. […] Prior the evaluation of bacterial cytotoxicity, we firstly removed viable bacteria from A549 cells cultures and washed A549 cells five times with pre-warmed PBS. Then, cellular viability was assessed as indicated above.
Figure S5. Cell death induced by A. baumannii ATCC 17978 and JPAB01 strains. A549 cells were infected for 48 h with 10^8 CFU/mL of ATCC 17978 and JPAB01 strains treated with AOA-2 (0 or 0.5 mg/mL). Bacterial cytotoxicity was assessed by monitoring the mitochondrial reduction activity using the MTT assay. Representative results of two independent experiments are shown; data are means ± SEM. JPAB01: ompA-deficient ATCC 17978 strain. *P<0.05: between infected and non-infected cells, #P<0.05: between untreated and treated groups. […]

E. coli ATCC 25922 = test: Murine peritoneal sepsis model; assay type: in vivo, mouse
Description: (§1) Murine peritoneal sepsis models with A. baumannii ATCC 17978, P. aeruginosa PaO1 or E. coli ATCC 25922 strains were established by i.p. inoculation of the bacteria. Briefly, mice were inoculated with 0.5 mL of the bacterial suspensions, which were incubated for 20–24 h in LB at 37 °C and mixed in a 1:1 ration with a saline solution containing 10% (w/v) porcine mucin (Sigma, Spain).
(§2) The murine peritoneal sepsis models by A. baumannii ATCC 17978, P. aeruginosa PaO1 or E. coli ATCC 25922 strains were established by i.p. inoculation of the bacteria. Briefly, animals were infected i.p. with 0.5 mL of the MLD100 of A. baumannii ATCC 17978, P. aeruginosa PaO1, or E. coli ATCC 25922 strains mixed 1:1 with 10% porcine mucin. […] Fifthy-six mice were randomly ascribed to the following groups: 1). controls (without treatment), and 2). […] Mortality was recorded over 72 h. After death or sacrifice of the mice at the end of the experimental period, aseptic thoracotomies were performed, and blood samples were obtained by cardiac puncture for qualitative blood cultures. The spleen and lungs were aseptically removed and homogenized (Stomacher 80; Tekmar Co., USA) in 2 mL of sterile NaCl 0.9% solution. Ten-fold dilutions of the homogenized spleen and lungs were plated onto Sheep blood agar for quantitative cultures (log CFU/g of spleen or lungs).

A. baumannii ATCC 17978 [2] = test: Murine peritoneal sepsis model; assay type: in vivo, mouse
Description: as §1, §2

P. aeruginosa PaO1 = test: Murine peritoneal sepsis model; assay type: in vivo, mouse
Description: as §1, §2

A. baumannii ATCC 17978 [3] = test: Adhesion of bacteria to A549 cells; assay type: cell-based; settings: 2 h
Description: Subsequently, infected A549 cells were washed five times with pre-warmed PBS and lysed with 0.5% Triton X-100. Diluted lysates were plated onto blood agar (Blood-Agar Columbia, Becton Dickinson Microbiology Systems, USA) and incubated at 37 °C for 24 h for enumeration of developed colonies and then the determination of the number of bacteria that attached to A549 cells.
Figure S3. OmpA inhibitor hexapeptides reduce A. baumannii adherence to A549 cells. A549 cells were infected with 10^8 CFU/mL of ATCC 17978 strain during 2 h in presence of AOA-1, […]
of bacterial adherence was calculated as follow: [(number of colonies of treated A549 cells with peptide / number of colonies of non-treated cells) x 100]. Representative results of three independent experiments are shown; data are means ± SEM. *P<0.05: between untreated and […]

[4] = Peptide toxicity, MTT assay; assay type: cell-based, human; settings: human, A549 cells
Description: Human type II pneumocyte cell line A549 derived from a human lung carcinoma were obtained from American Type Culture Collection (LGC, UK) and were grown in DMEM medium (Invitrogen, Spain) supplemented with 10% heat-inactivated fetal bovine serum, vancomycin (50 μg/mL), gentamicin (20 μg/mL), amphotericin B (0.25 μg/mL) (Invitrogen, Spain) and 1% HEPES (Invitrogen, Spain) in a humidified incubator, 5% CO2 at 37 °C. A549 cells were routinely passaged every 3–4 days. The cells were seeded 24 h in 96-well plates for cellular viability assay, and in 24 well plates for adhesion and immnunofluorescence assays.
Peptide toxicity. […] Prior the evaluation of the peptides cytotoxicity, A549 cells were washed three times with prewarmed PBS. Then, peptides cytotoxicity was initially assessed quantitatively by monitoring the mitochondrial reduction activity using the MTT assay as described previously. The percentage of […] was calculated from the optical density (OD) as follow: [(OD of treated cells / mean OD of non-treated cell) × 100].
Table S2. Percentages of A549 cellular viability assessed through mitochondrial reduction
activity (MTT assay) in presence of anti-OmpA hexapeptides and control peptides (SXV4 and
COL). COL: colistin. ND: not determined.
Peptides 0.25 mg/mL 0.5 mg/mL 1 mg/mL 5 mg/mL

[5] = E. coli ATCC 25922, 10 mg/kg/d i.p., 72 h
[6] = E. coli ATCC 25922 MLD i.p., 10 mg/kg AOA-2 i.p. 2 h after challenge
[7] = A. baumannii ATCC 17978, 10 mg/kg/d i.p., 72 h
[8] = A. baumannii ATCC 17978 MLD i.p., 10 mg/kg AOA-2 i.p. 2 h after challenge
[9] = P. aeruginosa PaO1, 10 mg/kg/d i.p., 72 h
[10] = P. aeruginosa PaO1 MLD i.p., 10 mg/kg AOA-2 i.p. 2 h after challenge

N=C(N)NCCC[C@@H]1NC(=O)[C@H]2CCCN2C(=O)[C@H](Cc2c[nH]c3ccccc23)NC(=O)[C@H](CCCNC(=N)N)NC(=O)[C@H]2CCCN2C(=O)[C@H](Cc2c[nH]c3ccccc23)NC1=O [AOA-2] (cyclo(RW[dP]RW[dP]))
A549 cell death induced by ompA-deficient A. baumannii (in words) [1]: no effect on cell death | mouse mortality (in words) (E. coli ATCC 25922; [5]): decreased | positive blood cultures (in words) (E. coli ATCC 25922; [5]): decreased | reduced the bacterial load in the lungs (E. coli ATCC 25922; [6]): 3.47 log CFU/g | reduced the bacterial load in the spleen (E. coli ATCC 25922; [6]): 3.36 log CFU/g | mouse mortality (in words) (A. baumannii ATCC 17978 [2]; [7]): decreased | positive blood cultures (in words) (A. baumannii ATCC 17978 [2]; [7]): decreased | reduced the bacterial load in the lungs (A. baumannii ATCC 17978 [2]; [8]): 4.34 log CFU/g | reduced the bacterial load in the spleen (A. baumannii ATCC 17978 [2]; [8]): 4.54 log CFU/g | mouse mortality (in words) (P. aeruginosa PaO1; [9]): decreased | positive blood cultures (in words) (P. aeruginosa PaO1; [9]): decreased | reduced the bacterial load in the lungs (P. aeruginosa PaO1; [10]): 4.29 log CFU/g | reduced the bacterial load in the spleen (P. aeruginosa PaO1; [10]): 4.04 log CFU/g | reduction in the adherence of A. baumannii to A549 cells (A. baumannii ATCC 17978 [3]; 0.25 mg/mL, 10^8 CFU/mL): more than 60% | ability to reduce A. baumannii adherence to A549 cells, rank among synthesized peptides (in words) (A. baumannii ATCC 17978 [3]; 0.25, 0.5, 1 mg/mL): greatest ability to reduce the A. baumannii adherence to A549 cells | viability at 48 h, 250 µg/mL [4]: 98.09 ± 0.27% | viability at 48 h, 500 µg/mL [4]: 98.33 ± 0.4% | viability at 48 h, 1000 µg/mL [4]: 98.48 ± 0.55%

Reference: PMC5666006, “Combating virulence of Gram-negative bacilli by OmpA inhibition” (Scientific Reports, 2017)
